Test results as given in patent EP4763847A1 (Jiangsu Yahong Meditech Co., Ltd., priority 2023, dated 2025).

Legend:
HCT116 MTAP KO = test: Cell proliferation inhibition (CellTiter Glo), HCT116 MTAP KO cells; type: cell-based; details: Homo sapiens, HCT-116, 144 h, cultured 6 days with compound
Protocol: (§1) Test Example 2: Test of cell proliferation inhibition activity of the compounds
(§2) HCT116-WT (ATCC, CCL-247) and HCT116 MTAP KO (Cobioer Nanjing, CBP75002) cells were seeded into white low-transparency 96-well sterile cell culture plates at a density of 250 cells per well, respectively. The culture medium was McCoy's 5A Medium + 10% FBS. The plates were incubated overnight at 37°C with 5% CO2. The cells were treated with compounds gradiently with an initial concentration of 10000 nM, 4-fold dilution, and 8 concentration points. The last two columns were control wells with only DMSO added. The treated cells were continued to be cultured for 6 days. On the seventh day, 50 µL of CellTiter Glo® reagent was added to each well. After reacting on a shaker at room temperature for 10 minutes, the chemiluminescence signal in the plate was detected using the chemiluminescence detection method on a BIOTEK H1 multi-mode plate reader. […] Table 2: IC50 values of compounds for HCT116 MTAP KO/WT cell growth inhibition

HCT116-WT = test: Cell proliferation inhibition (CellTiter Glo), HCT116-WT cells; type: cell-based; details: 144 h, cultured 6 days with compound
Protocol: as §1, §2

PRMT5-MTA = PRMT5-MTA (Homo sapiens, UniProt O14744); test: biochemical; details: IC50 (nM), PRMT5+MTA enzyme activity inhibition; PRMT5/MET50 protein 1 nM, 5'-deoxy-5'-adenosine 1 µM, SAM 2.5 µM, Histone H4 substrate 5 nM
Chain of PRMT5-MTA (O14744 whole entry): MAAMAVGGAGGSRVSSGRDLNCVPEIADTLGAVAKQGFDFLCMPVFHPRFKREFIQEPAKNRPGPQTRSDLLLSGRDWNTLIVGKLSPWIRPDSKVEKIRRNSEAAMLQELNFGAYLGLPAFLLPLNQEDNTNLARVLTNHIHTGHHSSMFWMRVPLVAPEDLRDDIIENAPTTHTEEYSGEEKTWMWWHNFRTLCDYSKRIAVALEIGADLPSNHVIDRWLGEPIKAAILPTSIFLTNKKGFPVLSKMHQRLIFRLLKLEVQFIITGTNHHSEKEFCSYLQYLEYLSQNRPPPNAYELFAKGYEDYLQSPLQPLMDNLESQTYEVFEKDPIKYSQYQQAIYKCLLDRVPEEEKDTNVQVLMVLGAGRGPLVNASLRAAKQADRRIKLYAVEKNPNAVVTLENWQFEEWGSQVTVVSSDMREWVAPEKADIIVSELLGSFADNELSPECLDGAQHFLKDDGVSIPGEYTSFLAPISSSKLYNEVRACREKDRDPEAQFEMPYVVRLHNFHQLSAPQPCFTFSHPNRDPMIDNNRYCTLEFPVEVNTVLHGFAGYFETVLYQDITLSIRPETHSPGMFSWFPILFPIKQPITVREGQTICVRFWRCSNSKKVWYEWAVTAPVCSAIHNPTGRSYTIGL
Chain of PRMT5-MTA (Q9BQA1 whole entry partner): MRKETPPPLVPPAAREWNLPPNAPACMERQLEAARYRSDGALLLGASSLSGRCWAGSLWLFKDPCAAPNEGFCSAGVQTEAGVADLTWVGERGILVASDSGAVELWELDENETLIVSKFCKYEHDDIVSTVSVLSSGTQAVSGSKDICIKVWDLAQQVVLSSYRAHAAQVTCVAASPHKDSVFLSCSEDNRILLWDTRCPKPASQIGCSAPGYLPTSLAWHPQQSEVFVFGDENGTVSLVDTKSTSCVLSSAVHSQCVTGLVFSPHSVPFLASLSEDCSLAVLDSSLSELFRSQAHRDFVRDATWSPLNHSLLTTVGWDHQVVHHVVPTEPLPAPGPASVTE
Protocol: The enzymatic inhibition activity of the compounds against PRMT5-MTA was detected using the AlphaScreen method. A 1× methyltransferase assay buffer IV (Signalchem) was prepared as a dilution solution for each component of the enzymatic reaction. […] The test compounds were added to all wells except the control wells in a 3-fold dilution series of 10 concentration points starting from 1000 nM using a Tecan D300e. After centrifugation at 1000 rpm for 1 minute in a centrifuge, the plate was incubated at 23°C for 15 minutes. Histone H4 substrate at a final concentration of 5 nM was added to the plate at 4 µL per well. After centrifugation at 1000 rpm for 1 minute in a centrifuge, the plate was reacted in an incubator at 23°C for 45 minutes. Anti-Histone H4 (symmetric dimethyl R3) antibody (Abcam) was pre-incubated with 50 µg/mL AlphaScreen Protein A Acceptor beads (PerkinElmer) at room temperature for 10 minutes, and then added to the plate in a volume of 10 µL per well, followed by reaction at room temperature for 1 hour. 10 µL of 50 µg/mL AlphaScreen Streptavidin Donor beads (PerkinElmer) were added to each well, and reacted at room temperature for 1 hour. The signal values in the plate were detected using the Alpha method on an Envision multi-mode plate reader. The IC50 values of the compounds for PRMT5/MET50 enzyme activity inhibition were calculated in Xlfit 5.0 software.

IC50 (HCT116 MTAP KO) | IC50 (HCT116-WT) | IC50 (PRMT5-MTA) | SMILES
422 nM | 1520 nM | 2.1 nM | CC(c1ncccn1)N(Cc1ccc(C(F)(F)F)cn1)C(=O)c1ccc(N=C(N)N)nc1 (stereo not shown) [Compound 7]
– | – | 7.6 nM | CNC(N)=Nc1ccc(C(=O)N(Cc2cccnc2)[C@H](C)c2ccccc2F)cn1 [Compound 100]
– | – | 1.3 nM | CC(c1ncccn1)N(Cc1ccc(C(F)(F)F)cn1)C(=O)c1ccc(N=C(N)NCCN(C)C)nc1 (stereo not shown) [Compound 10]
150 nM | 2580 nM | 3.9 nM | CNC(N)=Nc1ccc(C(=O)N(Cc2ccc(-c3cnc(C)nc3)cn2)[C@H](C)c2ccccc2F)cn1 [Compound 70]
25 nM | 428 nM | – | CCC(c1ccccc1F)N(Cc1ccc(C(F)(F)F)cn1)C(=O)c1ccc(N=C(N)NC)nc1 (stereo not shown) [Compound 84]
302 nM | 3360 nM | 3.4 nM | CNC(N)=Nc1ccc(C(=O)N(Cc2ccc(C(F)(F)F)cn2)C(C)c2cccc(C)c2)cn1 (stereo not shown) [Compound 31, 6-((amino(methylamino)methylene)amino)-N-(1-(m-tolyl)ethyl)-N-((5-(trifluoromethyl)pyridin-2-yl)methyl)nicotinamide]
– | – | 1.9 nM | CNC(N)=Nc1ccc(C(=O)N(Cc2ccc(C(F)(F)F)cn2)C(C)c2ccc(C)cc2)cn1 (stereo not shown) [Compound 40]
– | – | 2 nM | CNC(N)=Nc1ccc(C(=O)N(C)C2COc3cc(C(F)(F)F)ccc32)cn1 (stereo not shown) [Compound 54, 6-((amino(methylamino)methylene)amino)-N-methyl-N-(6-(trifluoromethyl)-2,3-dihydrobenzofuran-3-yl)nicotinamide]
– | – | 2 nM | CNC(N)=Nc1ccc(C(=O)N(Cc2ccc(C(F)(F)F)cn2)C2CCC2)cn1 [Compound 35]
– | – | 5 nM | CNC(N)=Nc1ccc(C(=O)N(C)C2COc3cc(-c4ccncc4)ccc32)cn1 (stereo not shown) [Compound 55, 6-((amino(methylamino)methylene)amino)-N-methyl-N-(6-(pyridin-4-yl)-2,3-dihydrobenzofuran-3-yl)nicotinamide]
– | – | 5.5 nM | COC(=O)CNC(N)=Nc1ccc(C(=O)N(Cc2ccc(C(F)(F)F)cn2)C(C)c2ncccn2)cn1 (stereo not shown) [Compound 8]
54 nM | 696 nM | – | CNC(N)=Nc1ccc(C(=O)N(Cc2ccc(-c3cncs3)cn2)[C@H](C)c2ccccc2F)cn1 [Compound 72]
– | – | 4.7 nM | CNC(=Nc1ccc(C(=O)N(Cc2ccc(C(F)(F)F)cn2)C(C)c2ncccn2)cn1)NC (stereo not shown) [Compound 21, 6-((bis(methyl-amino)methylene)amino)-N-(1-(pyrimidin-2-yl)ethyl)-N-((5-(trifluoromethyl)pyridin-2-yl)methyl)nicotinamide]
– | – | 2.3 nM | CC(C)NC(N)=Nc1ccc(C(=O)N(Cc2ccc(C(F)(F)F)cn2)C(C)c2ncccn2)cn1 (stereo not shown) [Compound 15]
– | – | 1.2 nM | CNC(N)=Nc1ccc(C(=O)N(Cc2ccc(C(F)(F)F)cn2)C(C)c2ccncc2)cn1 (stereo not shown) [Compound 39]
– | – | 0.8 nM | CC(c1ncccn1)N(Cc1ccc(C(F)(F)F)cn1)C(=O)c1ccc(N=C(N)NCCO)nc1 (stereo not shown) [Compound 19]
– | – | 1.6 nM | CNC(N)=Nc1ccc(C(=O)N(Cc2ccc(C(F)(F)F)cn2)C(C)c2cccc3ccccc23)cn1 (stereo not shown) [Compound 43]
– | – | 5.8 nM | COC=C(N)Nc1ccc(C(=O)N(Cc2ccc(C(F)(F)F)cn2)C(C)c2ncccn2)cn1 (stereo not shown) [Compound 23]

Further lines, the molecule ahead of its results:

SMILES | IC50 (HCT116 MTAP KO) | IC50 (HCT116-WT) | IC50 (PRMT5-MTA)
CNC(N)=Nc1ccc(C(=O)N(Cc2ccc(C(F)(F)F)cn2)C2CCCc3cccc(F)c32)cn1 (stereo not shown) [compound 93] | 33 nM | 504 nM | 7.1 nM
CNC(N)=Nc1ccc(C(=O)N(Cc2ccc(C(F)(F)F)cn2)C(C)c2ccccc2F)cn1 (stereo not shown) [Compound 42] | 61 nM | 982 nM | 1.6 nM
CNC(N)=Nc1ccc(C(=O)N(Cc2ccc(C(F)(F)F)cn2)[C@H](C)c2cc(F)ccc2F)cn1 [Compound 85] | 11 nM | 290 nM | 4 nM
CNC(N)=Nc1ccc(C(=O)N(Cc2ccc(C(F)(F)F)cn2)C(C)C2CC2)cn1 (stereo not shown) [Compound 33] | 279 nM | 4000 nM | 1 nM
CN/C(N)=N\c1ccc(C(=O)N(Cc2ccc(C(F)(F)F)cn2)[C@H](C)c2ccc(F)cc2F)cn1 [Compound 82, (R,Z)-6-((amino(methylamino)methylene)amino)-N-(1-(2,4-difluorophenyl)ethyl)-N-((5-(trifluoromethyl)pyridin-2-yl)methyl)nicotinamide] | 18 nM | 226 nM | 4.2 nM
CNC(N)=Nc1ccc(C(=O)N(Cc2ccc(C(F)(F)F)cn2)C(C)c2ncccc2F)cn1 (racemic) [Compound 58] | 34 nM | 971 nM | 0.4 nM
CC(c1ncccn1)N(Cc1ccc(C(F)(F)F)cn1)C(=O)c1ccc(N=C(N)Nc2ccccc2)nc1 (stereo not shown) [Compound 9] | – | – | 7.9 nM
CNC(N)=Nc1ccc(C(=O)N(Cc2ccc(C(F)(F)F)cn2)C(C)c2cccc(F)c2)cn1 (stereo not shown) [compound 119] | 398 nM | 2790 nM | 1.3 nM
CN/C(N)=N\c1ccc(C(=O)N(Cc2ccc(C(F)(F)F)cn2)C(C)c2cccc3nccnc23)cn1 (stereo not shown) [Compound 120, (Z)-6-((amino(methylamino)methylene)amino)-N-(1-(quinoxalin-5-yl)ethyl)-N-((5-(trifluoromethyl)pyridin-2-yl)methyl)nicotinamide] | – | – | 1 nM
COCCNC(N)=Nc1ccc(C(=O)N(Cc2ccc(C(F)(F)F)cn2)C(C)c2ncccn2)cn1 (stereo not shown) [Compound 3] | – | – | 2.9 nM
CNC(N)=Nc1ccc(C(=O)N(Cc2ccc(C(F)(F)F)cc2F)C(C)c2cccc3nccnc23)cn1 (stereo not shown) [compound 121] | – | – | 4.4 nM
CN/C(N)=N\c1ccc(C(=O)N(Cc2ccc(C(F)(F)F)cn2)C2CCCc3nccnc32)cn1 (stereo not shown) [Compound 122, (Z)-6-((amino(methylamino)methylene)amino)-N-(5,6,7,8-tetrahydroquinoxalin-5-yl)-N -((5-(trifluoromethyl)pyridin-2-yl)methyl)nicotinamide] | 192 nM | 1930 nM | –
CNC(N)=Nc1ccc(C(=O)N(Cc2ccc(C(F)(F)F)cn2)C(C)c2ncccn2)cc1 (stereo not shown) [Compound 4] | – | – | 1.6 nM
CC(c1ncccn1)N(Cc1ccc(C(F)(F)F)cn1)C(=O)c1ccc(N=C(N)NCC(=O)O)nc1 (stereo not shown) [Compound 18] | 868 nM | 2030 nM | –
CNC(N)=Nc1ccc(C(=O)N(Cc2ccc3sc(NC)nc3c2)[C@H](C)c2ccccc2F)cn1 [Compound 80] | – | – | 7.8 nM
CNC(N)=Nc1ccc(C(=O)N(CC2CCCCO2)C(C)c2ccccc2F)cn1 (stereo not shown) [Compound 103] | – | – | 4.2 nM
CN/C(N)=N\c1ccc(C(=O)N(Cc2ccc(C(F)(F)F)cn2)C(C)c2ncccc2F)cn1 (single isomer, unassigned) [Compound 66] | – | – | 7.5 nM
CNC(N)=Nc1ccc(C(=O)N2C[C@@H](C)CC[C@@H]2c2ccc(F)cc2)cn1 [Compound 57, 2-(5-((2R,5S)-2-(4-fluorophenyl)-5-methylpiperidine-1-carbonyl)pyridin-2-yl)-1-methyl guanidine] | – | – | 1.8 nM
CNC(N)=Nc1ccc(C(=O)N(Cc2ccc(C(F)(F)F)cn2)C2CCCc3cccnc32)cn1 (stereo not shown) [Compound 59] | 18 nM | 413 nM | –
CNC(N)=Nc1ccc(C(=O)N(Cc2ccc(C(F)(F)F)cn2)C(C)c2ccc(F)cc2)cn1 (stereo not shown) [Compound 37] | 454 nM | 2700 nM | –
